Measured values from patent publication US20260232684A1, “FLT3 INHIBITORS AND METHODS OF USING THE SAME” (BIOVENTURES, LLC, priority 2023, published 2026).

Experiments:
[1] = test system: Ba/F3 FLT3-ITD with Thr, Ile, or Val gatekeeper residues; assay: Cell viability, Ba/F3 FLT3-ITD with Thr, Ile or Val gatekeeper; type: cell-based; conditions: other gatekeeper mutants (Thr, Ile, Val) compared with F691M
Protocol: (§1) FIG. 3. Molecular docking study of compound 1 and impact of the most common gatekeeper variants in the human kinome on activity toward […]. […] The dim FLT3 active model was built using 1PKG (KIT) as a reference using Prime (Schrodinger®). The complex of active FLT3 bound to 1 was minimized by Embrace (Schrodinger®). […] Cells were treated with inhibitor at increasing log doses (0.1 nM-10 μM) for 48 hours. Cell viability was analyzed through CellTiter GLO.
(§2) To further investigate the possibility of a hydrophobic cage interaction and its contribution to the selectivity of compound 1, we assessed the impact of substitutions of the native phenylalanine at position 691 with the other residues most commonly found at this position in the human kinome (methionine, threonine, isoleucine, or valine). Ba/F3 cells transformed with FLT3-ITD or with FLT3-ITD substitutions at position 691 were assessed for sensitivity to compound 1 (FIG. 3C).
(§3) Exponentially growing cells (1×10^3-1×10^4 cells) were plated in triplicate in a 96-well plate with 0.1 mL of RPMI 1640+10% (vol/vol) FBS. Each triplicate was either dosed with drug or DMSO vehicle control. Drug dosing was completed at log doses ranging from 0.1 nM-10 μM. Cell viability was assessed after 48 hours using CellTiter GLO (Promega). Viability values were normalized to the vehicle control average. Numerical IC50 values were calculated in GraphPad Prism 7. […]

[2] = test system: Ba/F3 FLT3-ITD F691M line; assay: Cell viability, Ba/F3 FLT3-ITD F691M gatekeeper mutant; type: cell-based; conditions: IC50, 48 hours, CellTiter GLO
Protocol: as §1, §2, §3

SMILES: CN(C)CCNc1ncc(F)c(-c2cnc3cc(-c4cnn(C)c4)ccn23)n1 [Compound 1]
- loss of activity relative to the Ba/F3 FLT3-ITD line, in words [1]: an even greater impact
- loss of activity relative to the Ba/F3 FLT3-ITD line [2]: ~100 fold
